Measurements from patent publication US20210379035A1, “Methods Of Treating Fabry Patients Having Renal Impairment” (Amicus Therapeutics, Inc., priority 2017, published 2021).

Key:
[1] = Single-dose renal impairment PK and safety study in non-Fabry subjects (Example 1); format: in vivo, human; settings: single oral 150 mg migalastat HCl
Method: The eGFR was estimated by the Cockcroft-Gault equation per the FDA Guidance for renal impairment studies.
Volunteers were enrolled into two cohorts stratified for renal function calculated using the Cockcroft-Gault equation for creatinine clearance (CLCR). Subjects were assigned to groups based on an estimated CLCR at screening as calculated using the Cockcroft-Gault equation.
Subjects were grouped according to degree of renal dysfunction: mild (CLCR≥60 and <90 mL/min), moderate (CLCR≥30 and <60 mL/min), or severe (CLCR≥15 and <30 mL/min)

Fabry patients [2] = experiment: ERT-naïve study: renal function (eGFR); format: in vivo, human; settings: for Annualized Change in eGFRCKD-EPI, mean ± SE: ERT-Naïve; for mean±SEM annualized rate of change of eGFRCKD-EPI: ERT-naïve study, baseline to 18/24 months
Method: One study was a 24-month trial, including a 6-month double-blind, placebo-controlled period, in 67 ERT-naïve patients. The other study was an active-controlled, 18-month trial in 57 ERT-experienced patients with a 12-month open-label extension (OLE). Both the ERT-naïve and ERT-experienced studies included Fabry patients having an eGFR of ≥30 mL/min/1.73 m^2. The study designs for these studies are shown in FIGS. 10A-B. In the ERT-naïve study, the primary efficacy parameter was GL-3 inclusions per kidney interstitial capillary. […] A further analysis of data from these studies examined annualized change in […], WBC α-Gal A activity and plasma lyso-Gb3 levels based on renal function at baseline. The results for each renal subgroup are shown in Table 9 below, with the ERT-naïve study subgroups based on […] and the ERT-experienced study subgroups based on mGFRiohexol.

cardiac repolarization = settings: 150 mg and 1250 mg single doses; cited from earlier work
α-Gal A = experiment: ERT-naïve study: WBC α-Gal A activity; format: in vivo, human
Method: (§1) One study was a 24-month trial, including a 6-month double-blind, placebo-controlled period, in 67 ERT-naïve patients. The other study was an active-controlled, 18-month trial in 57 ERT-experienced patients with a 12-month open-label extension (OLE). Both the ERT-naïve and ERT-experienced studies included Fabry patients having an eGFR of ≥30 mL/min/1.73 m^2.
A further analysis of data from these studies examined annualized change in eGFRCKD-EPI, LVMi, WBC α-Gal A activity and plasma lyso-Gb3 levels based on renal function at baseline.

plasma lyso-GB3 [3] = experiment: ERT-experienced study: plasma lyso-Gb3; format: in vivo, human; settings: Migalastat 0-18 months
Method: as §1
(§2) A further analysis of data from these studies examined annualized change in eGFRCKD-EPI, LVMi, WBC α-Gal A activity and plasma lyso-Gb3 levels based on renal function at baseline. The results for each renal subgroup are shown in Table 9 below, with the ERT-naïve study subgroups based on eGFRMDRD and the ERT-experienced study subgroups based on mGFRiohexol.

Fabry patients [4] = experiment: Long-term analysis of 12 patients that completed multiple studies: eGFR; format: in vivo, human
Source text: In addition to the studies described above, other patients also received migalastat therapy in other studies such as dose-finding studies and/or long-term extension studies. […] 12 patients that completed multiple studies were further analyzed. Linear regression was used to calculate the annualized rate of change in […] from baseline.

Fabry patients [5] = experiment: ERT-experienced study: LVMi; format: in vivo, human; settings: Migalastat 0-18 months
Method: as §1, §2

plasma lyso-GB3 [6] = experiment: ERT-naïve study: plasma lyso-Gb3; format: in vivo, human
Method: as §1, §2

[7] = system: GL-3 inclusions per kidney interstitial capillary; experiment: ERT-naïve study: kidney interstitial capillary GL-3 inclusions; format: in vivo, human
Method: In the ERT-naïve study, the primary efficacy parameter was GL-3 inclusions per kidney interstitial capillary. Renal function was also evaluated by mGFRiohexol, eGFRCKD-EPI and eGFRMDRD.

Fabry patients [8] = experiment: ERT-naïve study: LVMi; format: in vivo, human
Method: as §1, §2

[9] = Migalastat→Migalastat 0-24 months, renal subgroup 30 to < 60
[10] = Migalastat→Migalastat 0-24 months, renal subgroup ≥60
[11] = Placebo→Migalastat 6-24 months, renal subgroup 30 to < 60
[12] = Placebo→Migalastat 6-24 months, renal subgroup ≥60

SMILES: OC[C@H]1NC[C@H](O)[C@@H](O)[C@H]1O [migalastat, (2R,3S,4R,5S)-2-(hydroxymethyl) piperdine-3,4,5-triol]
- increase of mean plasma migalastat AUC0-∞ compared to healthy control subjects ([1]; moderate renal impairment): 1.8 fold
- increase of mean plasma migalastat AUC0-∞ compared to healthy control subjects ([1]; severe renal impairment): 4.5 fold
- Annualized Change in eGFRCKD-EPI, mean ± SE (Fabry patients [2]; [9]): +3.2 ± 1.1 mL/min/1.73 m^2
- Annualized Change in eGFRCKD-EPI, mean ± SE (Fabry patients [2]; [10]): −0.7 ± 0.6 mL/min/1.73 m^2
- Annualized Change in eGFRCKD-EPI, mean ± SE (Fabry patients [2]; [11]): −2.8 ± 2.8 mL/min/1.73 m^2
- Annualized Change in eGFRCKD-EPI, mean ± SE (Fabry patients [2]; [12]): +0.1 ± 0.7 mL/min/1.73 m^2
- mean±SEM annualized rate of change of eGFRCKD-EPI (Fabry patients [2]; mild renal impairment): −0.8±1.01 mL/min/1.73 m^2/year
- mean±SEM annualized rate of change of eGFRCKD-EPI (Fabry patients [2]; moderate renal impairment): −0.7±3.97 mL/min/1.73 m^2/year
- mean±SEM annualized rate of change of eGFRCKD-EPI (Fabry patients [2]; normal renal function): 0.2±0.90 mL/min/1.73 m^2/year
- effect on cardiac repolarization (cardiac repolarization): negative
- WBC α-Gal A Activity (males only), change from baseline (α-Gal A; [9]): +1.4 4MU/hr/mg
- WBC α-Gal A Activity (males only), change from baseline, mean ± SE (α-Gal A; [10]): +1.6 ± 1.5 4MU/hr/mg
- WBC α-Gal A Activity (males only), change from baseline, mean ± SE (α-Gal A; [11]): +4.0 ± 3.0 4MU/hr/mg
- WBC α-Gal A Activity (males only), change from baseline, mean ± SE (α-Gal A; [12]): 5.2 4MU/h/mg
- Plasma lyso-Gb3, change from baseline, mean (plasma lyso-GB3 [3]; renal subgroup 30 to < 60): +0.5 nmol/L
- Plasma lyso-Gb3, change from baseline, mean (plasma lyso-GB3 [3]; renal subgroup ≥60): 1.9 nmol/L
- Annualized Rate of Change in eGFRCKD-EPI (Fabry patients [4]; entire duration of migalastat treatment, Patient 1): −0.853 mL/min/1.72 m^2
- Annualized Rate of Change in eGFRCKD-EPI (Fabry patients [4]; entire duration of migalastat treatment, Patient 2): 0.584 mL/min/1.72 m^2
- Annualized Rate of Change in eGFRCKD-EPI (Fabry patients [4]; entire duration of migalastat treatment, Patient 3): −2.838 mL/min/1.72 m^2
- Annualized Rate of Change in eGFRCKD-EPI (Fabry patients [4]; entire duration of migalastat treatment, Patient 4): 0.488 mL/min/1.72 m^2
- Annualized Rate of Change in eGFRCKD-EPI (Fabry patients [4]; entire duration of migalastat treatment, Patient 5): 0.001 mL/min/1.72 m^2
- Annualized Rate of Change in eGFRCKD-EPI (Fabry patients [4]; entire duration of migalastat treatment, Patient 6): −2.179 mL/min/1.72 m^2
- Annualized Rate of Change in eGFRCKD-EPI (Fabry patients [4]; entire duration of migalastat treatment, Patient 7): −0.704 mL/min/1.72 m^2
- Annualized Rate of Change in eGFRCKD-EPI (Fabry patients [4]; entire duration of migalastat treatment, Patient 8): −1.09 mL/min/1.72 m^2
- Annualized Rate of Change in eGFRCKD-EPI (Fabry patients [4]; entire duration of migalastat treatment, Patient 9): −0.443 mL/min/1.72 m^2
- Annualized Rate of Change in eGFRCKD-EPI (Fabry patients [4]; entire duration of migalastat treatment, Patient 10): 0.219 mL/min/1.72 m^2
- Annualized Rate of Change in eGFRCKD-EPI (Fabry patients [4]; entire duration of migalastat treatment, Patient 11): −0.342 mL/min/1.72 m^2
- Annualized Rate of Change in eGFRCKD-EPI (Fabry patients [4]; entire duration of migalastat treatment, Patient 12): −0.871 mL/min/1.72 m^2
- Annualized Rate of Change in eGFRCKD-EPI (Fabry patients [4]; entire migalastat treatment period (mean exposure 8.2 years), Mean of 12 patients): −0.67 mL/min/1.72 m^2
- LVMi, change from baseline, mean ± SE (Fabry patients [5]; renal subgroup 30 to < 60): −10.2 ± 2.4 gm^2
- LVMi, change from baseline, mean ± SE (Fabry patients [5]; renal subgroup ≥60): −4.8 ± 2.3 gm^2
- Plasma lyso-Gb3, change from baseline, mean (plasma lyso-GB3 [6]; [9]): -29.0 nmol/L
- Plasma lyso-Gb3, change from baseline, mean (plasma lyso-GB3 [6]; [10]): -7.7 nmol/L
- Plasma lyso-Gb3, change from baseline, mean (plasma lyso-GB3 [6]; [12]): -20.0 nmol/L
- change in kidney interstitial capillary GL-3 inclusions ([7]; baseline to month 6, eGFR<60 mL/min/1.73 m^2, n=3): −0.39
- change in kidney interstitial capillary GL-3 inclusions ([7]; baseline to month 6, eGFR≥60 mL/min/1.73 m^2, n=22): −0.30
- LVMi, change from baseline, mean ± SE (Fabry patients [8]; [9]): −5.5 ± 10.0 gm^2
- LVMi, change from baseline, mean ± SE (Fabry patients [8]; [10]): −9.2 ± 5.8 gm^2
- LVMi, change from baseline, mean ± SE (Fabry patients [8]; [11]): −21.0 ± 14.1 gm^2
- LVMi, change from baseline, mean ± SE (Fabry patients [8]; [12]): −3.2 ± 5.6 gm^2
